# According to ChEMBL document CHEMBL4725221, “Thiazoles, Their Benzofused Systems, and Thiazolidinone Derivatives: Versatile and Promising Tools to Combat Antibiotic Resistance” (J Med Chem, 2020):
# Assays:
# Micrococcus luteus = experiment: Antibacterial activity against Micrococcus luteus; type: functional
# Staphylococcus aureus [1] = experiment: Antibacterial activity against Staphylococcus aureus MLS16; type: functional
# Raoultella planticola = experiment: Antibacterial activity against Klebsiella planticola; type: functional
# Pseudomonas aeruginosa [2] = experiment: Antibacterial activity against Pseudomonas aeruginosa; type: functional
# Bacillus subtilis [3] = experiment: Antibacterial activity against Bacillus subtilis; type: functional
# Escherichia coli [4] = experiment: Antibacterial activity against Escherichia coli; type: functional
# Staphylococcus aureus [5] = experiment: Antibacterial activity against Staphylococcus aureus; type: functional
# Escherichia coli [6] = experiment: Antibacterial activity against Escherichia coli MTCC 40 after 7 days by two-fold serial dilution method; type: functional; details: MTCC 40, 168 h, time 7 day
# Staphylococcus aureus [7] = experiment: Antibacterial activity against Staphylococcus aureus MTCC 121 after 7 days by two-fold serial dilution method; type: functional; details: MTCC 121, 168 h, time 7 day
# Pseudomonas aeruginosa [8] = experiment: Antibacterial activity against Pseudomonas aeruginosa MTCC 2453 after 7 days by two-fold serial dilution method; type: functional; details: MTCC 2453, 168 h, time 7 day
# Bacillus subtilis [9] = experiment: Antibacterial activity against Bacillus subtilis […] after 7 days by two-fold serial dilution method; type: functional; details: 168 h, time 7 day
# Staphylococcus aureus [10] = experiment: Antibacterial activity against Staphylococcus aureus ATCC 6538 by CLSI protocol based microdilution method; type: functional, organism-based
# Staphylococcus aureus [11] = experiment: Antibacterial activity against Staphylococcus aureus ATCC 25923 by CLSI protocol based microdilution method; type: functional, organism-based
# Escherichia coli [12] = experiment: Antibacterial activity against Escherichia coli AG102; type: functional
# Escherichia coli [13] = experiment: Antibacterial activity against Escherichia coli AG102 in presence of ciprofloxacin; type: functional
# Listeria monocytogenes = experiment: Antibacterial activity against Listeria monocytogenes ATCC 19115 after 24 hrs by CLSI protocol based cup-plate agar diffusion method; type: functional
# Salmonella typhimurium = experiment: Antibacterial activity against Salmonella typhimurium ATCC 14028 after 24 hrs by CLSI protocol based cup-plate agar diffusion method; type: functional, Salmonella enterica subsp. enterica serovar Typhimurium; details: Salmonella enterica
# Pseudomonas aeruginosa [14] = experiment: Antibacterial activity against Pseudomonas aeruginosa ATCC 27853 after 24 hrs by CLSI protocol based cup-plate agar diffusion method; type: functional
# Staphylococcus aureus [15] = experiment: Antibacterial activity against Staphylococcus aureus ATCC 49444 after 24 hrs by CLSI protocol based cup-plate agar diffusion method; type: functional
# Enterococcus faecalis [16] = experiment: Antibacterial activity against Enterococcus faecalis; type: functional
# Enterococcus faecalis [17] = experiment: Antibiofilm activity against Enterococcus faecalis; type: functional
smiles,measurement,setting,value
O=c1oc2ccc3ccccc3c2cc1-c1csc(N/N=C/c2cn(-c3nc4ccccc4s3)nc2-c2cc3ccccc3oc2=O)n1,MIC,Micrococcus luteus,> 125 µg/mL
same,MIC,Staphylococcus aureus [1],7.8 µg/mL
same,MIC,Raoultella planticola,7.8 µg/mL
same,MIC,Pseudomonas aeruginosa [2],> 125 µg/mL
same,MIC,Bacillus subtilis [3],15.6 µg/mL
same,MIC,Escherichia coli [4],7.8 µg/mL
same,MIC,Staphylococcus aureus [5],7.8 µg/mL
O=c1oc2ccccc2cc1-c1nn(-c2nc3ccccc3s2)cc1/C=N/Nc1nc(-c2ccc(-c3ccccc3)cc2)cs1,MIC,Micrococcus luteus,7.8 µg/mL
same,MIC,Staphylococcus aureus [1],7.8 µg/mL
same,MIC,Raoultella planticola,31.2 µg/mL
same,MIC,Pseudomonas aeruginosa [2],7.8 µg/mL
same,MIC,Bacillus subtilis [3],7.8 µg/mL
same,MIC,Escherichia coli [4],7.8 µg/mL
same,MIC,Staphylococcus aureus [5],7.8 µg/mL
COc1ccc(/C=C2\SC(c3cccc(Br)c3)N(NC(=O)c3ccc(-c4ccccc4)cc3)C2=O)cc1 (configuration not stated),MIC,Escherichia coli [6],1.56 µg/mL
same,MIC,Staphylococcus aureus [7],3.12 µg/mL
same,MIC,Pseudomonas aeruginosa [8],12.5 µg/mL
same,MIC,Bacillus subtilis [9],1.56 µg/mL
O=C(NN1C(=O)/C(=C/c2cccc(Br)c2)SC1c1ccccc1)c1ccc(-c2ccccc2)cc1 (configuration not stated),MIC,Escherichia coli [6],12.5 µg/mL
same,MIC,Staphylococcus aureus [7],3.12 µg/mL
same,MIC,Pseudomonas aeruginosa [8],6.25 µg/mL
same,MIC,Bacillus subtilis [9],6.25 µg/mL
COCCn1cc(-c2nc(-c3cn(C)c4ccccc34)cs2)c2cc(F)ccc21,IC50,Staphylococcus aureus [10],21 µg/mL
same,IC50,Staphylococcus aureus [11],0.2 µg/mL
O=C(Cc1ccc(F)cc1)Nc1ccc(Cc2nc3ccccc3s2)cc1,MIC,Escherichia coli [12],256 µg/mL
same,MIC,Escherichia coli [13],0.03 µg/mL
O=C(NN1C(=O)/C(=C/c2ccc(Cl)cc2)SC1c1cccc(Br)c1)c1ccc(-c2ccccc2)cc1 (configuration not stated),MIC,Escherichia coli [6],12.5 µg/mL
same,MIC,Staphylococcus aureus [7],6.25 µg/mL
same,MIC,Pseudomonas aeruginosa [8],6.25 µg/mL
same,MIC,Bacillus subtilis [9],6.25 µg/mL
O=c1oc2c(Br)cccc2cc1-c1csc(N/N=C/c2cn(-c3nc4ccccc4s3)nc2-c2cc3ccccc3oc2=O)n1,MIC,Micrococcus luteus,7.8 µg/mL
same,MIC,Staphylococcus aureus [1],7.8 µg/mL
same,MIC,Raoultella planticola,7.8 µg/mL
same,MIC,Pseudomonas aeruginosa [2],7.8 µg/mL
same,MIC,Bacillus subtilis [3],3.9 µg/mL
same,MIC,Escherichia coli [4],7.8 µg/mL
same,MIC,Staphylococcus aureus [5],7.8 µg/mL
Cc1nc(-c2ccccc2)sc1-c1nnc(S)n1/N=C\c1ccc([N+](=O)[O-])cc1,MIC,Listeria monocytogenes,1.9 µg/mL
same,MIC,Salmonella typhimurium,62.5 µg/mL
same,MIC,Pseudomonas aeruginosa [14],1.9 µg/mL
same,MIC,Staphylococcus aureus [15],62.5 µg/mL
CCc1ccc(C(=O)Nc2ccc(-c3nc4ccccc4s3)cc2)cc1,MIC,Escherichia coli [12],128 µg/mL
same,MIC,Escherichia coli [13],0.016 µg/mL
COc1cccc(/C=C2\SC(c3ccccc3)N(NC(=O)c3ccc(-c4ccccc4)cc3)C2=O)c1 (configuration not stated),MIC,Escherichia coli [6],6.25 µg/mL
same,MIC,Staphylococcus aureus [7],6.25 µg/mL
same,MIC,Pseudomonas aeruginosa [8],6.25 µg/mL
same,MIC,Bacillus subtilis [9],1.56 µg/mL
c1ccc(-c2nc(-c3cccc(-c4nc(-c5cccc6ccccc56)cs4)c3)cs2)cc1,MIC,Enterococcus faecalis [16],16 µg/mL
same,MBIC,Enterococcus faecalis [17],0.004 mg/mL
COc1ccccc1/C=N\n1c(S)nnc1-c1sc(-c2ccccc2)nc1C,MIC,Listeria monocytogenes,1.9 µg/mL
same,MIC,Salmonella typhimurium,62.5 µg/mL
same,MIC,Pseudomonas aeruginosa [14],1.9 µg/mL
same,MIC,Staphylococcus aureus [15],31.2 µg/mL
COCCn1cc(-c2csc(-c3cn(CCOC)c4ccc(Br)cc34)n2)c2ccccc21,IC50,Staphylococcus aureus [10],18.8 µg/mL
same,IC50,Staphylococcus aureus [11],2.9 µg/mL
O=C(Nc1ccc(Cc2nc3ccccc3s2)cc1)c1ccc(Br)cc1,MIC,Escherichia coli [12],128 µg/mL
same,MIC,Escherichia coli [13],0.03 µg/mL
O=c1oc2c(Br)cc(Br)cc2cc1-c1csc(N/N=C/c2cn(-c3nc4ccccc4s3)nc2-c2cc3ccccc3oc2=O)n1,MIC,Micrococcus luteus,> 125 µg/mL
same,MIC,Staphylococcus aureus [1],7.8 µg/mL
same,MIC,Raoultella planticola,7.8 µg/mL
same,MIC,Pseudomonas aeruginosa [2],> 125 µg/mL
same,MIC,Bacillus subtilis [3],3.9 µg/mL
same,MIC,Escherichia coli [4],7.8 µg/mL
same,MIC,Staphylococcus aureus [5],> 125 µg/mL
COCCn1cc(-c2nc(-c3cn(C)c4ccccc34)cs2)c2cc(OC)ccc21,IC50,Staphylococcus aureus [10],11.5 µg/mL
same,IC50,Staphylococcus aureus [11],1.2 µg/mL
O=C(NN1C(=O)/C(=C/c2ccccc2)SC1c1ccccc1)c1ccc(-c2ccccc2)cc1 (configuration not stated),MIC,Escherichia coli [6],6.25 µg/mL
same,MIC,Staphylococcus aureus [7],6.25 µg/mL
same,MIC,Pseudomonas aeruginosa [8],6.25 µg/mL
same,MIC,Bacillus subtilis [9],3.12 µg/mL
O=C(Cc1ccccc1)Nc1ccc(-c2nc3ccccc3s2)cc1,MIC,Escherichia coli [12],256 µg/mL
same,MIC,Escherichia coli [13],0.125 µg/mL
O=C(NN1C(=O)/C(=C/c2ccc(Cl)cc2)SC1c1ccccc1)c1ccc(-c2ccccc2)cc1 (configuration not stated),MIC,Escherichia coli [6],3.12 µg/mL
same,MIC,Staphylococcus aureus [7],3.12 µg/mL
same,MIC,Pseudomonas aeruginosa [8],12.5 µg/mL
same,MIC,Bacillus subtilis [9],6.25 µg/mL
COc1ccc(CC(=O)Nc2ccc(-c3nc4ccccc4s3)cc2)cc1,MIC,Escherichia coli [12],256 µg/mL
same,MIC,Escherichia coli [13],0.008 µg/mL
COc1cccc(/C=N\n2c(S)nnc2-c2sc(-c3ccccc3)nc2C)c1,MIC,Listeria monocytogenes,1.9 µg/mL
same,MIC,Salmonella typhimurium,31.2 µg/mL
same,MIC,Pseudomonas aeruginosa [14],1.9 µg/mL
same,MIC,Staphylococcus aureus [15],31.2 µg/mL
